For experiment [1], the target named is T1, RARβ (Homo sapiens, UniProt P10826).
T1 sequence (P10826 1-448 isoform P10826-2): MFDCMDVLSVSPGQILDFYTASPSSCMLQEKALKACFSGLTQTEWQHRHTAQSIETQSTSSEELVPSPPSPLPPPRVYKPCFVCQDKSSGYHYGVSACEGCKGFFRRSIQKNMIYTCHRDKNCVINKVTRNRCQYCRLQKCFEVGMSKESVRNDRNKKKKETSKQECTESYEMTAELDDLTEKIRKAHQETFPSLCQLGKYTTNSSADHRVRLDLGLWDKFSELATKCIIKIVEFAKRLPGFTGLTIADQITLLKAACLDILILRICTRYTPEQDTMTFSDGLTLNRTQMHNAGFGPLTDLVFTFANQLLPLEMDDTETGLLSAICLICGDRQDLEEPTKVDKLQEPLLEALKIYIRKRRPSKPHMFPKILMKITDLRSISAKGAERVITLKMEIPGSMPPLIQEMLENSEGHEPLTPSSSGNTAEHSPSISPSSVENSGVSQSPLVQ
As to the kind of experiment: Holoreceptor transactivation assay. The experiment is classed as cell-based. Also on record: expressed in transfected cells; host or cells: CV1 cells. As to conditions: relative to all trans retinoic acid; read-out: Transactivation Assay Efficacy (% of RA activity) RARβ. The source says:
(§1) A holoreceptor transactivation assay and a ligand binding assay which measure the antagonist/agonist like activity of the compounds of the invention, or their ability to bind to the several retinoid receptor subtypes, respectively, are described in published PCT Application No. WO93/11755 (particularly on pages 30-33 and 37-41) published on Jun. 24, 1993, the specification of which is also incorporated herein by reference. A description of the holoreceptor transactivation assay is also provided below.
(§2) CV1 cells (5,000 cells/well) were transfected with an RAR reporter plasmid MTV-TREp-LUC (50 ng) along with one of the RAR expression vectors (10 ng) in an automated 96-well format by the calcium phosphate procedure of Heyman et al. Cell 68: 397-406. For RXR-α and RXR-γ transactivation assays, an RXR-responsive reporter plasmid CRBPII-tk-LUC (50 ng) along with the appropriate RXR expression vectors (10 ng) was used substantially as described by Heyman et al. above, and Allegretto et al. J. Biol. Chem. 268: 26625-26633. For RXR-β transactivation assays, an RXR-responsive reporter plasmid CPRE-tk-LUC ([…]) along with RXR-β expression vector ([…]) was used as described in above. These reporters contain DRI elements from human CRBPII and certain DRI elements from promotor, respectively (see Mangelsdorf et al. The Retinoids: Biology Chemistry and Medicine, pp. 319-349, Raven Press Ltd., New York and Heyman et al., cited above). A β-galactosidase (50 ng) expression vector was used as an internal control in the transfections to normalize for variations in transfection efficiency. The cells were transfected in triplicate for 6 hours, followed by incubation with retinoids for 36 hours, and the extracts were assayed for luciferase and […] activities. The detailed experimental procedure for holoreceptor transactivations has been described in Heyman et al. above, and Allegretto et al. cited above. The results obtained in this assay are expressed in EC50 numbers, as they are also in the chimeric receptor transactivation assay. The Heyman et al. Cell 68: 397-406, Allegretto et al. J. Biol. Chem. 268: 26625-26633, and Mangelsdorf et al. The Retinoids: Biology, Chemistry, and Medicine, pp. 319-349, Raven Press Ltd., New York, are expressly incorporated herein by reference. The results of ligand binding assay are expressed in Kd numbers. (See Cheng et al. Biochemical Pharmacology 22: 3099-3108, expressly incorporated herein by reference.)
A compound should not cause significant activation of a reporter gene through a given receptor subtype (RAR-α, RAR-β or RAR-γ) in the holoreceptor transactivation assay, in order to qualify as an RAR antagonist with utility in the present invention.

In experiment [2] the target is T2, RARβ (Homo sapiens, UniProt P10826).
T2 sequence (P10826 1-455): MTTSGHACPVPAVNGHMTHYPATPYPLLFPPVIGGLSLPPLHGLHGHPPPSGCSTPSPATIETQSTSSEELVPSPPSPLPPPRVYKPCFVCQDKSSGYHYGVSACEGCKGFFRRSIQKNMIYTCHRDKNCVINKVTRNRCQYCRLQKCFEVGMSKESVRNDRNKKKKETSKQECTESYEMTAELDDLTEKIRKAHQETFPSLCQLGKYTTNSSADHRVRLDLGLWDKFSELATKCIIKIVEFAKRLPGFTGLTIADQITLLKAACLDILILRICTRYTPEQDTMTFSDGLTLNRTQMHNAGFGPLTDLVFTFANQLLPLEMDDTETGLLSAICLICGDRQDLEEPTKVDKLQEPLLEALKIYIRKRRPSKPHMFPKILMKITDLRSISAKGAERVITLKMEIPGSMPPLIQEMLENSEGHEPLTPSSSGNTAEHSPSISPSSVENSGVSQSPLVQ
Description: Ligand binding assay. As to conditions: read-out: Kd (nanomolar) RARβ.
Excerpt: as §1
as §2, with “reference.) […]” for “reference.)”

As usually defined, the Kd is the equilibrium constant for the complex coming apart. Take `CC(C)(C)c1ccc(C2=CCC(C)(C)c3ccc(C#Cc4ccc(C(=O)O)cc4)cc32)cc1` [Compound 61, 4-[(5,6-Dihydro-5,5-dimethyl-8-(4-(1,1-dimethylethyl)phenyl)-2-naphthalenyl)ethynyl]benzoic acid]: at RARβ [1], the Emax stood at 2%. For the same compound, at RARβ [2], the Kd came out at 15 nM.
The corresponding values for `CC1(C)CC=C(c2ccccn2)c2cc(C#Cc3ccc(C(=O)O)cc3)ccc21` [Compound 19, 4-[(5,6-Dihydro-5,5-dimethyl-8-(2-pyridyl)-2-naphthalenyl)ethynyl]benzoic acid] are 5% and 210 nM.
Consider `Cc1cccc(C2=CCC(C)(C)c3ccc(C#Cc4ccc(C(=O)O)cc4)cc32)c1` [Compound 20, 4-[(5,6-Dihydro-5,5-dimethyl-8-(3-methylphenyl)-2-naphthalenyl)ethynyl]benzoic acid], for which the Emax on RARβ [1] turned out to be 4%. Besides, the dissociation constant Kd at RARβ [2] amounted to 22 nM.
The corresponding values for `Cc1ccc(C2=CCC(C)(C)c3cc(C(=O)C=Cc4ccc(C(=O)O)cc4)ccc32)cc1` [Compound 101, 4-[3-oxo-3-(7,8-dihydro-5-(4-methylphenyl)-8,8-dimethyl-2-naphthalenyl)-1-propenyl]-benzoic acid] are 4% and 143 nM.
On to `CC1(C)CC=C(c2ccc(Cl)cc2)c2cc(C#Cc3ccc(C(=O)O)cc3)ccc21` [Compound 25, 4-[(5,6-Dihydro-5,5-dimethyl-8-(4-chlorophenyl)-2-naphthalenyl)ethynyl]benzoic acid], for which the Emax at RARβ [1] was determined as 3%. Also, the Kd on RARβ [2] is 17 nM.
The corresponding values for `CC1(C)CC=C(c2ccc(O)cc2)c2cc(C#Cc3ccc(C(=O)O)cc3)ccc21` [Compound 29, 4-[(5,6-Dihydro-5,5-dimethyl-8-(4-hydroxyphenyl)-2-naphthalenyl)ethynyl]benzoic acid] are 6% and 48 nM.
Taken in the same sequence, the figures for `CCc1ccc(C2=CCC(C)(C)c3ccc(C#Cc4ccc(C(=O)O)cc4)cc32)cc1` [Compound 21, 4-[(5,6-Dihydro-5,5-dimethyl-8-(4-ethylphenyl)-2-naphthalenyl)ethynyl]benzoic acid] were 2% and 9 nM.
The corresponding values for `Cc1ccc(C2=CCC(C)(C)c3ccc(C#Cc4ccc(C(=O)O)cc4)cc32)cn1` [Compound 18, 4-[(5,6-Dihydro-5,5-dimethyl-8-(2-methyl-5-pyridyl)-2-naphthalenyl)ethynyl]benzoic acid] are 1% and 11 nM.
For `Cc1ccc(C2=CCC(C)(C)c3ccc(/C=C/c4ccc(C(=O)O)cc4)cc32)cc1` [Compound 45], on RARβ [1], the Emax came to 0%. Further, the Kd at RARβ [2] was found to be 2.8 nM.
Taken in the same sequence, the figures for `COc1ccc(C2=CCC(C)(C)c3ccc(C#Cc4ccc(C(=O)O)cc4)cc32)cc1` [Compound 22, 4-[(5,6-Dihydro-5,5-dimethyl-8-(4-methoxyphenyl)-2-naphthalenyl)ethynyl]benzoic acid] were 0% and 17 nM.
Turning to `CC(/C=C/C=C(\C)c1ccc2c(c1)C(c1ccc(C)cc1)=CCC2(C)C)=C\C(=O)O` [Compound 52, (E,E,E)-3-methyl-7-(5,6-dihydro-5,5-dimethyl-8-(4-methylphenyl)-2-naphthalenyl)-2,4,6-octatrienoic acid], the Emax on RARβ [1] stood at 15%. The Kd on RARβ [2] stood at 63 nM.
Taken in the same sequence, the figures for `Cc1ccc(C2=CCC(C)(C)c3ccc(C(=O)Nc4ccc(C(=O)O)cc4)cc32)cc1` [Compound 36, 4-[[(5,6-Dihydro-5,5-dimethyl-8-(4-methylphenyl)-2-naphthalenyl)carbonyl]amino]-benzoic acid] were 5% and 550 nM.
With `CC1(C)CC=C(c2cccc(O)c2)c2cc(C#Cc3ccc(C(=O)O)cc3)ccc21` [Compound 28, 4-[(5,6-Dihydro5,5-dimethyl-8-(3-hydroxyphenyl)-2-naphthalenyl)ethynyl]benzoic acid], the Emax on RARβ [1] came to 10%. In addition, the Kd on RARβ [2] was determined as 77 nM.
The corresponding values for `Cc1cnc(C2=CCC(C)(C)c3ccc(C#Cc4ccc(C(=O)O)cc4)cc32)s1` [Compound 30, 4-[(5,6-Dihydro-5,5-dimethyl-8-(5-methylthiazol-2-yl)-2-naphthalenyl)ethynyl]benzoic acid] are 5% and 141 nM.
As for `Cc1ccc(C2=CCC(C)(C)c3ccc(N=Nc4ccc(C(=O)O)cc4)cc32)cc1` [Compound 46b, 4-[(5,6-dihydro-5,5-dimethyl-8-(4-methylphenyl)-2-naphthalenyl)azo]-benzoic acid], at RARβ [1], the Emax was determined as 5%. Also, the dissociation constant (Kd) on RARβ [2] was 3.7 nM.
For the compound `CC1(C)CC=C(c2cccnc2)c2cc(C#Cc3ccc(C(=O)O)cc3)ccc21` [Compound 26, 4-[(5,6-Dihydro-5,5-dimethyl-8-(3-pyridyl)-2-naphthalenyl)ethynyl]benzoic acid], at RARβ [1], the Emax is 6%. For the same compound, the Kd at RARβ [2] turned out to be 31 nM.
Regarding `Cc1ccc(C2=CCC(C)(C)c3ccc(C(=O)Oc4ccc(C(=O)O)cc4)cc32)cc1` [Compound 39, 4-[[(5,6-Dihydro-5,5-dimethyl-8-(4-methylphenyl)-2-naphthalenyl)carbonyl]oxy]-benzoic acid], the Emax at RARβ [1] is 7%. The Kd at RARβ [2] was 38 nM.

The record behind these values is patent US6469028B1, “Synthesis and use of retinoid compounds having negative hormone and/or anatgonist activities” (Allergan, Inc., priority 1995, dated 2002).
